Data: patent US20260131107A1, “CATHETERS” (ConvaTec Limited, priority 2023, published 2026)

What was measured:
[1] = system: Enterococcus faecalis NCTC 12201; assay: In vitro direct inoculation method, sulfanilamide comparison (Further Assessment 3); type: cell-based
Experimental: (§1) An in vitro direct inoculation method was used to assess the antimicrobial activity of sulfanilamide in an intermittent urinary catheter scenario against […] Escherichia coli NCIMB 14067 and […] Enterococcus faecalis NCTC 12201; two microorganisms associated with urinary tract infections. Sulfanilamide concentrations of 0.1% and 0.01% were tested and bacterial levels monitored over a period of 5 minutes. Representative colonies of the challenge microorganisms, from an 18-24 hour challenge culture plate, were dispersed in MRD to obtain an optical density (OD540 nm) equivalent to approximately 1×10^8 CFU/mL. This was diluted to obtain a working concentration of 1×10^6 CFU/mL. A quantitative count was performed to confirm the inoculum level. The challenge organism was prepared in MRD to a concentration of approximately 1×10^6 CFU/mL. This suspension was added in a 1 mL volume to 9 mL of sample (n=3 per sample, n=2 per control) in a sterile 30 mL universal and pipetted up and down to mix. Following each testing period, 5 seconds, 30 seconds, 1 minute, 2 minutes and 5 minutes, 100 μL of the test solution was transferred to 0.9 mL and 9.9 mL volumes of DENB (1:10 and 1:100 dilutions, respectively). The most appropriate dilutions were inoculated (100 pL) onto duplicate pre-dried (tryptone soy agar) TSA plates and the inoculum spread using separate sterile L-shaped spreaders (for 10-1 and 10-2 dilutions, 0.5 mL were placed onto duplicate plates). The TSA plates were allowed to dry before being inverted and incubated at 35±3° C. for at least 48 hours. Following the incubation period, the number of bacterial colonies were counted on the most appropriate dilution for each dressing type i.e. between 25-250 CFU/plate. The samples tested were: 0.1% sulfanilamide in sterile deionised water (SDW); 0.01% sulfanilamide in SDW; 100 ppm hypochlorous acid in SDW; and a SDW control.

[2] = system: Escherichia coli NCIMB 14067; assay: as above; type: cell-based
Experimental: as §1

[3] = system: ESBL Producing Klebsiella pneumoniae NCTC 13465; assay: Direct inoculation method (Assessment 6a); type: cell-based; conditions: 250 ppm solution
Experimental: (§2) Representative colonies from an 18-24 hour challenge culture plate were dispersed in a 500 µl aliquot of maximum recovery diluent (MRD) to obtain an optical density (OD540 nm) equivalent to approximately I×lO^8 CFU/ml. This was diluted to obtain a working concentration of I×lO^7 CFU/ml. A quantitative count was performed to confirm the inoculum level.
(§3) The bacteria tested were Escherichia coli NCIMB 14067, ESBL Producing Klebsiella pneumoniae NCTC 13465, Enterococcus faecalis NCTC 12201, Proteus mirabilis NCTC 9559 and Pseudomonas aeruginosa NCIMB 8626, which each are commonly associated with causing CAUTI.
(§4) 5 pl of the I×lO^7 CFU/ml challenge suspension was added to a 500 pl aliquot of hypochlorous acid solution (250 ppm) (n=3 per challenge organism, per timepoint) and mixed to form a suspension.
(§5) Following 10 seconds, 1 minute and 2 minutes from adding the challenge suspension to the aliquot of hypochlorous acid, samples were taken from the suspension to establish the number of challenge organisms remaining. This was performed by removing 100 pl volumes and transferring to 0.9 ml and 9.9 ml DENB (for 1:10 and 1:100 dilutions respectively). Appropriate serial dilutions were performed and inoculated onto pre-dried Tryptone Soy Agar (TSA) plates to establish the numbers remaining.

[4] = system: Enterococcus faecalis NCTC 12201; assay: Direct inoculation method (Assessment 6a); type: cell-based; conditions: 250 ppm solution
Experimental: as §2, §3, §4, §5

[5] = system: Escherichia coli NCIMB 14067; assay: Direct inoculation method (Assessment 6a); type: cell-based; conditions: 250 ppm solution
Experimental: as §2, §3, §4, §5

[6] = system: Proteus mirabilis NCTC 9559; assay: Direct inoculation method (Assessment 6a); type: cell-based; conditions: 250 ppm solution
Experimental: as §2, §3, §4, §5

[7] = system: Pseudomonas aeruginosa NCIMB 8626; assay: Direct inoculation method (Assessment 6a); type: cell-based; conditions: 250 ppm solution
Experimental: as §2, §3, §4, §5

[8] = system: Escherichia coli NCIMB 14067; assay: Antimicrobial activity along the catheter method (Assessment 6b); type: cell-based; conditions: concentration 300 ppm or above; each section of GentleCath Air 2.0 CH14 catheter; two minutes
Experimental: as §2, with “in” for “in a 500 µl aliquot of”, “I×lO^4” for “I×lO^7”
The bacteria tested were Escherichia coli NCIMB 14067 which are bacteria that are commonly associated with causing CAUTI.
GentleCath Air 2.0 CH14 (manufactured by ConvaTec Inc.) intermittent urinary catheters were used for the assessment. Each catheter was prepared within a laminar flow cabinet to maintain sterility. In the assessment, each catheter was hydrated with a 100, 150, 200, 300, 675 or 1000 ppm hypochlorous acid solution. A further catheter was hydrated with sterile deionised water (SDW) and was used as a control.
Enough samples were prepared for n=3 and controls for n=1 per challenge organism.
Each catheter was hydrated with a hypochlorous solution as described above, as per the IFU, and removed from its packaging.
Each catheter was cut into three sections, each section having a length of 2.5 cm, beginning at the tip of the catheter (section 1) and ending proximal to the handle of the catheter (section 3). […]

E. coli NCIMB 14067 [9] = assay: Antimicrobial residual test (Assessment 6c); type: cell-based, Escherichia coli; conditions: for Antimicrobial residual test result (growth of challenge organism): 40 µl on sterile filter
Experimental: (§6) Representative colonies from an 18-24 hour challenge culture plate were dispersed in maximum recovery diluent (MRD) to obtain an optical density (OD540 nm) equivalent to approximately I×lO^8 CFU/ml. This was diluted to obtain a working concentration of I×lO^6 CFU/ml. A quantitative count was performed to confirm the inoculum level. The bacteria tested were Escherichia coli NCIMB 14067, Enterococcus faecalis NCTC 12201, which each are commonly associated with causing CAUTI. 40 pl of a hypochlorous acid solution (250 ppm), representative of the amount of hypochlorous acid that is left on a catheter following hydration, was placed onto sterile filters. A 40 pl volume of maximum recovery diluent (MRD) was placed onto a further sterile filter as a negative control. A 40 pl volume of approximate 2% […] was placed onto a further sterile filter as a positive control. The filters used were Grade 427 mm Whatman Filters. Following timepoints of 0 minutes, 30 minutes and 4 hours from adding the hypochlorous acid solutions and control to respective sterile filters, each sterile filter was then inoculated with lOpl of IxlO^6 CFU/ml challenge suspension of bacteria, prepared as described above, and left undisturbed for two minutes (to represent approximate urination time). Following the two minutes, the filters were homogenised in Dey-Engley Neutralising Broth (DENB) and appropriate serial dilutions were performed and inoculated onto pre-dried Tryptone Soy Agar (TSA) plates to establish the bacteria numbers remaining.

E. faecalis NCTC 12201 = assay: Antimicrobial residual test (Assessment 6c); type: cell-based, Enterococcus faecalis; conditions: for Antimicrobial residual test result (growth of challenge organism): 40 µl on sterile filter
Experimental: as §6

E. coli NCIMB 14067 [10] = assay: Antimicrobial efficacy of very low hypochlorous acid concentrations, suspension test (Further Assessment 2); type: cell-based, Escherichia coli; conditions: for bacterial recovery: 10 ppm solution; for numbers of bacteria recovered: after 30 seconds
Experimental: The antimicrobial efficacy of hypochlorous acid was tested at even lower concentrations (10, 25, and 50 ppm) against the challenging organism E. coli NCIMB 14067. The representative colonies of E. coli NCIMB 14067 were dispersed in maximum recovery diluent (MRD) to obtain an optical density (OD540 nm) equivalent to approximately […]. A quantitative plate count was performed on this suspension to determine the total number of viable organisms inoculated. A new suspension was prepared for each concentration tested. A 1000 ppm hypochlorous acid solution was diluted in sterile deionised water to provide the respective 10, 25 and 50 ppm hypochlorous acid solutions. The hypochlorous acid samples were aliquoted into 9 mL volumes and 1 mL of the challenge organism suspension was added and mixed (the final number of bacteria present is now approximately 1×10^6 CFU/mL). Following 5, 30 seconds, 1, 2, and 5 minutes, 100 pL volumes were sampled and transferred to 0.9 mL and 9.9 mL of Dey-Engley Neutralising Broth (DENB) (to provide a 1:10 and 1:100 dilution respectively), and total viable counts were performed to establish the amount present. The plates were left to dry before being inverted and incubated at 35+3° C. for at least 48 hours. A negative control was also tested whereby 1 mL of the challenge organism suspension was added to 9 mL of MRD and tested as previously described. Following the incubation period, the number of CFUs were counted on the most appropriate dilution for each sample i.e. between 25-250 CFU/plate.

[11] = 0.1% and 0.01% in SDW, any timepoint from 5 seconds to 5 minutes
[12] = inoculated at 0 hour (plus 2 minutes)
[13] = inoculated at 30 minutes (plus 2 minutes)
[14] = inoculated at 4 hours (plus 2 minutes)
[15] = 250 ppm solution on sterile filter
[16] = 100 ppm in SDW, within 5 seconds and for the remaining testing period (to 5 minutes)

Nc1ccc(S(N)(=O)=O)cc1 [sulfanilamide, reference compound]
challenge organism numbers compared to the control [1, 11]: no decrease in challenge organism numbers | challenge organism numbers compared to the control [2, 11]: no decrease in challenge organism numbers

OCl [hypochlorous acid]
Bacterial numbers reduced to the detection limit (>5 log reduction) ([3]; 10 seconds): Yes | Bacterial numbers reduced to the detection limit (>5 log reduction) ([3]; 1 minute): Yes | Bacterial numbers reduced to the detection limit (>5 log reduction) ([3]; 2 minutes): Yes | Bacterial numbers reduced to the detection limit (>5 log reduction) ([4]; 10 seconds): Yes | Bacterial numbers reduced to the detection limit (>5 log reduction) ([4]; 1 minute): Yes | Bacterial numbers reduced to the detection limit (>5 log reduction) ([4]; 2 minutes): Yes | Bacterial numbers reduced to the detection limit (>5 log reduction) ([5]; 10 seconds): Yes | Bacterial numbers reduced to the detection limit (>5 log reduction) ([5]; 1 minute): Yes | Bacterial numbers reduced to the detection limit (>5 log reduction) ([5]; 2 minutes): Yes | Bacterial numbers reduced to the detection limit (>5 log reduction) ([6]; 10 seconds): Yes | Bacterial numbers reduced to the detection limit (>5 log reduction) ([6]; 1 minute): Yes | Bacterial numbers reduced to the detection limit (>5 log reduction) ([6]; 2 minutes): Yes | Bacterial numbers reduced to the detection limit (>5 log reduction) ([7]; 10 seconds): Yes | Bacterial numbers reduced to the detection limit (>5 log reduction) ([7]; 1 minute): Yes | Bacterial numbers reduced to the detection limit (>5 log reduction) ([7]; 2 minutes): Yes | bacterial cell death [8]: greater than 93% | Antimicrobial residual test result (growth of challenge organism) (E. coli NCIMB 14067 [9]; [12]): No growth | Antimicrobial residual test result (growth of challenge organism) (E. coli NCIMB 14067 [9]; [13]): Growth | Antimicrobial residual test result (growth of challenge organism) (E. coli NCIMB 14067 [9]; [14]): Growth | time by which antimicrobial activity was exhausted (E. coli NCIMB 14067 [9]; [15]): ≤ 30 min | Antimicrobial residual test result (growth of challenge organism) (E. faecalis NCTC 12201; [12]): No growth | Antimicrobial residual test result (growth of challenge organism) (E. faecalis NCTC 12201; [13]): Growth | Antimicrobial residual test result (growth of challenge organism) (E. faecalis NCTC 12201; [14]): Growth | time by which antimicrobial activity was exhausted (E. faecalis NCTC 12201; [15]): ≤ 30 min | bacterial recovery (E. coli NCIMB 14067 [10]; 1 minute timepoint): undetectable levels | bacterial recovery (E. coli NCIMB 14067 [10]; at 30 seconds): over 10 CFU/mL | numbers of bacteria recovered (E. coli NCIMB 14067 [10]; 25 ppm solution): undetectable numbers of bacteria | numbers of bacteria recovered (E. coli NCIMB 14067 [10]; 50 ppm solution): undetectable numbers of bacteria | challenge organism numbers [1, 16]: undetectable numbers | challenge organism numbers [2, 16]: undetectable numbers
